Consider three compounds from the NIST ThermoML archive (doi:10.1016/j.jct.2008.03.015).

± gives the expanded uncertainty stated by the source.

For this series the following is noted: Crystal 1.
Regarding `CCCCCCCCCCCCCCCCCCO` [1-octadecanol], the Normal melting temperature is 58.38 ± 0.62 °C.

On to `CCCCCCCCCCCCCCCCO` [1-hexadecanol], for which the Normal melting temperature came out at 49.76 ± 0.62 °C.

For `CCCCCCCCCCCCO` [dodecan-1-ol], the Normal melting temperature was determined as 24.07 ± 0.62 °C.
